Laboratory results: patent publication US4097482A, “5-O-Cyanobenzyl-4,5,6,7-tetrahydro-thieno[3,2-c]pyridine maleate” (Centre d'Etudes Pour L'Industrie Pharmaceutique, priority 1975, dated 1978)

Assays:
[1] = Toxicological investigation: acute toxicity LD50 in mice, intravenous route; details: mouse, in vivo, per kg body weight
[2] = system: ovalbumin-induced systemic edema; assay: Anti-inflammatory action: ovalbumin-induced systemic edema method; assay type: in vivo; details: rats, 100 mg orally 1 hr prior to and with ovalbumin, vs control group
Protocol: (b) Ovalbumin-induced systemic edema method Rats are administered a simultaneous intraperitoneal injection of 1 ml ovalbumin and 0.5 ml of a 1°/.Salinity. aqueous Evans Blue solution. The animals of the treated group are additionally administered orally 100 mg of the test derivative, 1 hr prior to and simultaneously with ovalbumin administration. The intensity of the phenomenon thus induced is scored according to a scale from 1 to 5, according to the progress of the inflammatory syndrome. Thus are determined the mean intensity of the edema and the percent decrease of the edema reaction with respect to the control group.

[3] = system: carrageenin-induced edema; assay: Anti-inflammatory action: localised carrageenin-induced edema method; assay type: in vivo; details: rats, 100 mg/kg orally 1 h before, with, 1 h and 2.5 hrs after carrageenin
Protocol: (a) Localised carrageenin-induced edema method: A 1% carrageenin solution (0.1 ml) is injected in the metatarsal flexor muscles of the right hind limb of rats at time 0. The animals of the treated group are additionally administered orally 100 mg/kg of the test derivative, respectively one hour prior to and then simultaneously with the injection of the phlogogenic agent, and then 1 hour and 2.5 hrs thereafter. The percent anti-inflammatory activity with reference to the reference group, as a function of time, is determined by measurements effected with a Roch micrometer at times 0, 1 hour, 2 hours, 3 hours and 5 hours after carrageenin administration. The results obtained with derivatives nos.

O=C(O)c1ccccc1CN1CCc2sccc2C1 [Derivative no. 2, 5-o-Carboxybenzyl-4,5,6,7-tetrahydro-thieno[3,2-c]pyridine]
LD50 at 24 h [1]: 300 mg/kg

COC(=O)c1ccccc1CN1Cc2ccsc2CC1C (stereo not drawn) [Derivative no. 3, 5-o-Methoxycarbonylbenzyl-6-methyl-4,5,6,7-tetrahydrothieno[3,2-c]pyridine]
LD50 at 24 h [1]: 65 mg/kg

Cl.Clc1ccccc1C=CCN1CCc2sccc2C1 [Derivative no. 6, 5-(3-o-chlorophenyl-2-propenyl)-4,5,6,7-tetrahydro-thieno[3,2-c]pyridine hydrochloride]
LD50 at 24 h [1]: 60 mg/kg

OCc1ccccc1CN1CCc2sccc2C1 [Derivative no. 10, 5-o-hydroxy-methylbenzyl-4,5,6,7-tetrahydrothieno[3,2-c]pyridine]
Percent decrease (of the edema reaction) after 2 hours [2]: 51%
Percent decrease (of the edema reaction) after 3 hours [2]: 62%
Percent anti-inflammatory activity after 1 hour [3]: 36%
Percent anti-inflammatory activity after 2 hours [3]: 48%
Percent anti-inflammatory activity after 5 hours [3]: 56%

COC(=O)c1ccccc1CN1CCc2sccc2C1 [Derivative no. 1, 5-o-Methoxycarbonylbenzyl-4,5,6,7-tetrahydro-thieno[3,2-c]pyridine]
LD50 at 24 h [1]: 92 mg/kg
Percent decrease (of the edema reaction) after 2 hours [2]: 51%
Percent decrease (of the edema reaction) after 3 hours [2]: 58%
Percent anti-inflammatory activity after 1 hour [3]: 43%
Percent anti-inflammatory activity after 2 hours [3]: 50%
Percent anti-inflammatory activity after 5 hours [3]: 55%

Cl.c1cc2c(s1)CCN(Cc1ccc3c(c1)OCO3)C2 [Derivative no. 8, 5-(3,4-methylenedioxy-benzyl)-4,5,6,7-tetrahydro-thieno[3,2-c]pyridine hydrochloride]
LD50 at 24 h [1]: 65 mg/kg
Percent decrease (of the edema reaction) after 2 hours [2]: 54%
Percent decrease (of the edema reaction) after 3 hours [2]: 64%
Percent anti-inflammatory activity after 1 hour [3]: 41%
Percent anti-inflammatory activity after 2 hours [3]: 51%
Percent anti-inflammatory activity after 5 hours [3]: 59%

N#Cc1ccccc1CN1CCc2sccc2C1.O=C(O)/C=C\C(=O)O [Derivative no. 7, 5-o-cyanobenzyl-4,5,6,7-tetrahydrothieno[3,2-c]pyridine maleate]
LD50 at 24 h [1]: 45 mg/kg

OC(CN1CCc2sccc2C1)c1cccs1 (stereo not drawn) [Derivative no. 5, 5-[2-hydroxy-2-(2-thienyl)-ethyl]-4,5,6,7-tetrahydro-thieno[3,2-c]pyridinefumarate]
LD50 at 24 h [1]: 75 mg/kg
Percent decrease (of the edema reaction) after 2 hours [2]: 50%
Percent decrease (of the edema reaction) after 3 hours [2]: 61%
Percent anti-inflammatory activity after 1 hour [3]: 45%
Percent anti-inflammatory activity after 2 hours [3]: 53%
Percent anti-inflammatory activity after 5 hours [3]: 59%

Cl.Clc1ccc(CN2CCc3sccc3C2)s1 [Derivative no. 4, 5-[(5-Chloro-2-thienyl)-methyl]-4,5,6,7-tetrahydro-thieno[3,2-c]pyridine hydrochloride]
LD50 at 24 h [1]: 165 mg/kg
Percent decrease (of the edema reaction) after 2 hours [2]: 48%
Percent decrease (of the edema reaction) after 3 hours [2]: 53%
Percent anti-inflammatory activity after 1 hour [3]: 39%
Percent anti-inflammatory activity after 2 hours [3]: 47%
Percent anti-inflammatory activity after 5 hours [3]: 54%
